Experimental data as given in patent US20120189641A1, “COMBINATION ANTI-CANCER THERAPY” (OSI PHARMACEUTICALS, LLC, priority 2009, published 2012).
Entries after “also recorded” stand apart in the source; their conditions may differ.

Key:
IGF-1R = target: T1, IGF-1R (Homo sapiens, UniProt P08069); assay: IGF-1R phosphorylation (pIGF-1R) in tumor cells, RTK capture array; assay type: cell-based; conditions: OSI-906 3 uM, 24 hours
T1 construct: endogenous in cells; host or cells: A673, H322, HT-29 tumor cells
Source text: The media was removed, cells were washed two times with PBS, and cells were lysed as previously described.

Akt pathway = assay: Downstream signaling (pAkt, pErk) in tumor cell lysates, Western blotting; assay type: cell-based, human; conditions: H322 NSCLC and HT-29 CRC cells; OSI-906 3 uM or MAB-391 2 ug/ml; 24 hours
Experimental: Cell extracts were prepared by detergent lysis (50 mM Tris-HCl, pH 8.0, 150 mM NaCl, 1% NP-40, 0.5% sodium deoxycholate, 0.1% SDS, containing protease inhibitor (P8340, Sigma, St. Louis, Mo.) and phosphatase inhibitor (P5726, Sigma, St. Louis, Mo.) cocktails. The soluble protein concentration was determined by micro-BSA assay (Pierce, Rockford Ill.). Protein immunodetection was performed by electrophoretic transfer of SDS-PAGE separated proteins to nitrocellulose, incubation with antibody, and chemiluminescent second step detection (PicoWest; Pierce, Rockford, Ill.). The antibodies included: phospho-Akt(473) and total Akt. Both antibodies were obtained from Cell Signaling Technology, Inc. (Danvers, Mass.). For analysis of an agent's effect on the phosphorylation of downstream signaling proteins, cell lines were grown to approximately 70% confluency, at which time the indicated agent was added at the indicated concentration, and cells were incubated at 37° C. for 24 hours. The media was removed, cells were washed two times with PBS, and cells were lysed as previously described.

IGF-1R and IR = assay: Biochemical potency against IGF-1R and IR; conditions: comparison of IGF-1R and IR

T1 sequence (P08069 31-1367): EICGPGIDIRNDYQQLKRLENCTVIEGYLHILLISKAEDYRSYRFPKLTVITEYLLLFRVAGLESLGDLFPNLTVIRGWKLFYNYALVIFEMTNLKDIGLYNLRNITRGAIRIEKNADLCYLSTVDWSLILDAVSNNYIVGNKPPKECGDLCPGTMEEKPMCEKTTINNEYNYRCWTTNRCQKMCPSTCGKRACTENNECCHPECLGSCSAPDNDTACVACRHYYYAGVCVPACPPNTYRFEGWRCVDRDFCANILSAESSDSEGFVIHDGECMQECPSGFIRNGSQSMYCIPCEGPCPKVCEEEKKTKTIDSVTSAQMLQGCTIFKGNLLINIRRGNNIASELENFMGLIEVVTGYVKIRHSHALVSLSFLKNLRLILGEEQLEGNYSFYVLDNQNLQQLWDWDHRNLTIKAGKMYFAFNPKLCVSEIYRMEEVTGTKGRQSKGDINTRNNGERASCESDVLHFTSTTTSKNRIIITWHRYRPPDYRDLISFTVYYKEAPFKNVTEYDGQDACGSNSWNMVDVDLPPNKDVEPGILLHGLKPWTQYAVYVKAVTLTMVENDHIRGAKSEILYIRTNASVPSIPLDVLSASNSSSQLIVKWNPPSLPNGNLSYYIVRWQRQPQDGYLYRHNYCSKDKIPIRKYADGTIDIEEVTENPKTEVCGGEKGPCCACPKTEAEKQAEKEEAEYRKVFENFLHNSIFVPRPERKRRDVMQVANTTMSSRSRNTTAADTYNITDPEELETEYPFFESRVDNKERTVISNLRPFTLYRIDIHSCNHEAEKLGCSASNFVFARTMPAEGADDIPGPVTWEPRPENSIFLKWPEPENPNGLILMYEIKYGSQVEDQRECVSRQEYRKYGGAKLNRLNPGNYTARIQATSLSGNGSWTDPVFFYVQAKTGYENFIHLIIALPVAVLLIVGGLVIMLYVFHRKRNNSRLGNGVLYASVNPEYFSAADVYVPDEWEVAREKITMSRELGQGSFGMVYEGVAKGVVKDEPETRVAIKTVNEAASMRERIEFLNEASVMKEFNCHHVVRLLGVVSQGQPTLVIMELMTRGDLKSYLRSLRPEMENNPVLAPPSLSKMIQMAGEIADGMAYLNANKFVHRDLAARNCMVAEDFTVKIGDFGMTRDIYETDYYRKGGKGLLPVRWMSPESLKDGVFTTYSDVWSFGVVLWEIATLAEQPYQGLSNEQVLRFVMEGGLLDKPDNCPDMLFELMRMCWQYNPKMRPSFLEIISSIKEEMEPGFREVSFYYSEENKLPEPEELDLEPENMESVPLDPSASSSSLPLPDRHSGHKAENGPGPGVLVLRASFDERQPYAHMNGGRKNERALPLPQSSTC

inhibition of IGF-1R (pIGF-1R) (IGF-1R; A673 Ewing's Sarcoma cells): inhibits both IR and IGF-1R
Compound: C[C@]1(O)C[C@@H](c2nc(-c3ccc4ccc(-c5ccccc5)nc4c3)c3c(N)nccn32)C1 [OSI-906, cis-3-[8-amino-1-(2-phenyl-quinolin-7-yl)-imidazo[1,5-a]pyrazin-3-yl]-1-methyl-cyclobutanol]
inhibition of pIGF-1R (IGF-1R; H322 and HT-29 cells (FIG. 2)): robust inhibition of both pIR and pIGF-1R
inhibition of the Akt pathway (pAkt) (Akt pathway): greater blockade of the Akt pathway; also recorded: greater capacity to inhibit the Akt pathway
biochemical potencies against IGF-1R and IR (IGF-1R and IR): similar
